The values below come from US11517532B2, “Methods of treating hepatitis delta virus infection” (Eiger BioPharmaceuticals, Inc., priority 2015, dated 2022).

Like-named read-outs stand apart in the source and are kept apart here.

Data set [1] can be described thus: Lonafarnib serum concentration in HDV patients, Example 3. It counts as in vivo, human. The conditions noted are these: for LNF Serum Concentration at Week 6 / concentration at 6 weeks: oral; for LNF Serum Concentration at Week 6: listed as LNF; for concentration at 6 weeks: human, serum, po, read-out: LNF Serum Concentration at Week 6. On the procedure:
Serum levels of lonafarnib can be measured using art-known methods. As used herein, a serum lonafarnib level or concentration can be measured from a serum sample obtained from a subject periodically (such as weekly, biweekly, monthly or according to other schedules) and the levels during intervening periods can be extrapolated. For example, if a measurement of 4,000 ng/ml is obtained at 4 weeks and a measurement of 6,000 ng/ml is obtained at 6 weeks, for purposes of this analysis it is concluded that the serum level during the intervening two weeks ranged between 4,000 and 6,000 ng/ml. In some embodiments the first measurement is made no earlier than one week after the initiation of oral therapy.
This example describes the anti-HDV effect of combination therapy with separately formulated lonafarnib and ritonavir at several combinations of dosages. Eight patients with chronic HDV infection were divided into four groups and treated with different dose combinations of separately formulated lonafarnib and ritonavir (orally administered) for 42 days under the regimens summarized in Table 10. The patients were followed for an additional period of time after discontinuation of therapy.

The conditions of data set [2]: formulated in crystalline forms, animals; cited from earlier work.
For data set [3] the following is noted: cited from earlier work.
The mark [4] stands for this setting: Group 2 (Patients 3-4): lonafarnib 100 mg BID + ritonavir 50 mg QD.
Setting [5] is: Group 3 (Patients 5-6): lonafarnib 100 mg QD + ritonavir 100 mg QD.
The mark [6] stands for this setting: Group 4 (Patients 7-8): lonafarnib 150 mg QD + ritonavir 100 mg QD.

As for `NC(=O)N1CCC(CC(=O)N2CCC([C@H]3c4ncc(Br)cc4CCc4cc(Cl)cc(Br)c43)CC2)CC1` [lonafarnib], the “LNF Serum Concentration at Week 6” value in data set [1] (setting [4]) came out at 3044 ng/mL; in data set [1] (setting [5]) it was 1640 ng/mL; in data set [1] (setting [6]), 1830 ng/mL. In addition, the “lonafarnib serum levels (FIG. 6)” value in data set [1] (Patient 8, reduced correlation with HDV viral load) was ~2,000 ng/mL. The LNF serum concentrations in data set [1] (QD dosing of ritonavir) is 2500 to 3500 ng/mL. For the same molecule, the results for the concentration at 6 weeks in data set [1] (setting [4]), in data set [1] (setting [5]) and in data set [1] (setting [6]) were 4020 ng/mL, 2340 ng/mL and 1840 ng/mL, respectively. Moreover, the “lonafarnib serum levels (FIG. 5)” value in data set [1] (one patient, 100 mg BID lonafarnib + 100 mg QD ritonavir, inverse correlation with HDV viral load) is given as ~5,000 ng/mL. Also, in data set [2], the bioavailability entry is “low and variable”. Further, in data set [3] (by pH), the stability in solution entry is listed as “stable at neutral pH but will hydrolyze in acidic or basic conditions”. In addition, in data set [3], the water solubility entry is “poorly water soluble”.
